Measurements reported in patent publication US6358947B1 (American Home Products Corporation, priority 1999, dated 2002).

Molecular target: T1, hER (Homo sapiens, UniProt P03372)
T1 sequence (P03372 1-595): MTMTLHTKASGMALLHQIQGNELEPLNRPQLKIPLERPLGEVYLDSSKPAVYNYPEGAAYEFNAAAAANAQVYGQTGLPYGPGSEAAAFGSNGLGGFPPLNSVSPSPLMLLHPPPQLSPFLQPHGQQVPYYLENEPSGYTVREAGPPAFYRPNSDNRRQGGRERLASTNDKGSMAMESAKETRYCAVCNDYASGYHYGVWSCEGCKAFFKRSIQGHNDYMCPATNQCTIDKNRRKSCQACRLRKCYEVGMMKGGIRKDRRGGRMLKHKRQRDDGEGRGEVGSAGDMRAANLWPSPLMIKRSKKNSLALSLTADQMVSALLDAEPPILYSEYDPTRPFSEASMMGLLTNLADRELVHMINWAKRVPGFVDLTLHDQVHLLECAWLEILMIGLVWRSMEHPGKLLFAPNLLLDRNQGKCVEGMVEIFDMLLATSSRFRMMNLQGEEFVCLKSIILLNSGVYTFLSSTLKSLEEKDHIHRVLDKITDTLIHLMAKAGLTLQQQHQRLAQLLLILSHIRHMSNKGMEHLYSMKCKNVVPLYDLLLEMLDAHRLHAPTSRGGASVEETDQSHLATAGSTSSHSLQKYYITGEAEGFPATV
Assay: Cotransfection assay, ER antagonist
Assay type: cell-based
Conditions: read-out: ER Potency Antag
Text: (§1) The cotransfection assay provides a method for identifying functional agonists and partial agonists that mimic, or antagonists that inhibit, the effect of native hormones, and for quantifying their activity for responsive intracellular receptor (IR) proteins. In this regard, the cotransfection assay mimics an in vivo system in the laboratory. Importantly, activity in the cotransfection assay correlates very well with known in vivo activity, such that the cotransfection assay functions as a qualitative and quantitative predictor of a tested compound's in vivo pharmacology.
(§2) In the cotransfection assay, a cloned cDNA for an IR (e.g., human PR, AR or GR) under the control of a constitutive promoter (e.g., the SV 40 promoter) is introduced by transfection (a procedure to induce cells to take up foreign genes) into a background cell substantially devoid of endogenous IRs. This introduced gene directs the recipient cells to make the IR protein of interest. A second gene is also introduced (cotransfected) into the same cells in conjunction with the IR gene. This second gene, comprising the cDNA for a reporter protein, such as firefly luciferase (LUC), is controlled by an appropriate hormone responsive promoter containing a hormone response element (HRE). This reporter plasmid functions as a reporter for the transcription-modulating activity of the target IR. Thus, the reporter acts as a surrogate for the products (mRNA, then protein) normally expressed by a gene under control of the target receptor and its native hormone.
(§3) The cotransfection assay can detect small molecule agonists or antagonists of target IRs. Exposing the transfected cells to an agonist ligand compound increases reporter activity in the transfected cells. This activity can be conveniently measured, e.g., by increasing luciferase production, which reflects compound-dependent, IR-mediated increases in reporter transcription. […] Increasing concentrations of a suspected antagonist will decrease the reporter signal (e.g., luciferase production). The cotransfection assay is therefore useful to detect both agonists and antagonists of specific IRs. Furthermore, it determines not only whether a compound interacts with a particular IR, but whether this interaction mimics (agonizes) or blocks (antagonizes) the effects of the native regulatory molecules on target gene expression, as well as the specificity and strength of this interaction.

Row | SMILES | IC50 [µM]
1 | CC1(C)OC(=O)Nc2ccc3c(c21)COc1c(F)cc(C#N)cc1-3 [Compound 26, 9-cyano-7-fluoro-4,4-dimethyl-5H-chromeno[3,4-f]-1,3-benzo[d]oxazin-2-one] | > 10
2 | CC1(C)OC(=O)Nc2ccc3c(c21)COc1c(F)cccc1-3 [Compound 14, 7-Fluoro-4,4-dimethyl-5H-chromeno[3,4-f]-1,3-benzo[d]oxazin-2-one] | > 10
3 | CC1(C)OC(=O)Nc2ccc3c(c21)COc1c(F)cc(C=NO)cc1-3 [Compound 25, 7-fluoro-9-hydroxyiminomethyl-4,4-dimethyl-5H-chromeno[3,4-f]-1,3-benzo[d]oxazin-2-one] | > 10
4 | CC1(C)OC(=O)Nc2ccc3c(c21)COc1c(F)cc(Br)cc1-3 [Compound 20, 9-Bromo-7-fluoro-4,4-dimethyl-5H-chromeno[3,4-f]-1,3-benzo[d]oxazin-2-one] | > 10
5 | CC1(C)OC(=O)Nc2ccc3c(c21)COc1c(F)cc(C=O)cc1-3 [Compound 24, 7-fluoro-9-formyl-4,4-dimethyl-5H-chromeno[3,4-f]-1,3-benzo[d]oxazin-2-one] | > 10

Molecular target: T1, hER
Assay: Cotransfection assay, ER agonist
Assay type: cell-based
Conditions: read-out: ER Potency Agon
Text: as §1, §2, §3

Row | SMILES | EC50 [µM]
6 | CC1(C)OC(=O)Nc2ccc3c(c21)COc1c(F)cc(C#N)cc1-3 [Compound 26, 9-cyano-7-fluoro-4,4-dimethyl-5H-chromeno[3,4-f]-1,3-benzo[d]oxazin-2-one] | > 10
7 | CC1(C)OC(=O)Nc2ccc3c(c21)COc1c(F)cccc1-3 [Compound 14, 7-Fluoro-4,4-dimethyl-5H-chromeno[3,4-f]-1,3-benzo[d]oxazin-2-one] | > 10
8 | CC1(C)OC(=O)Nc2ccc3c(c21)COc1c(F)cc(C=NO)cc1-3 [Compound 25, 7-fluoro-9-hydroxyiminomethyl-4,4-dimethyl-5H-chromeno[3,4-f]-1,3-benzo[d]oxazin-2-one] | > 10
9 | CC1(C)OC(=O)Nc2ccc3c(c21)COc1c(F)cc(Br)cc1-3 [Compound 20, 9-Bromo-7-fluoro-4,4-dimethyl-5H-chromeno[3,4-f]-1,3-benzo[d]oxazin-2-one] | > 10
10 | CC1(C)OC(=O)Nc2ccc3c(c21)COc1c(F)cc(C=O)cc1-3 [Compound 24, 7-fluoro-9-formyl-4,4-dimethyl-5H-chromeno[3,4-f]-1,3-benzo[d]oxazin-2-one] | > 10

Molecular target: T2, human PR (Homo sapiens, UniProt P06401)
T2 sequence (P06401 1-933): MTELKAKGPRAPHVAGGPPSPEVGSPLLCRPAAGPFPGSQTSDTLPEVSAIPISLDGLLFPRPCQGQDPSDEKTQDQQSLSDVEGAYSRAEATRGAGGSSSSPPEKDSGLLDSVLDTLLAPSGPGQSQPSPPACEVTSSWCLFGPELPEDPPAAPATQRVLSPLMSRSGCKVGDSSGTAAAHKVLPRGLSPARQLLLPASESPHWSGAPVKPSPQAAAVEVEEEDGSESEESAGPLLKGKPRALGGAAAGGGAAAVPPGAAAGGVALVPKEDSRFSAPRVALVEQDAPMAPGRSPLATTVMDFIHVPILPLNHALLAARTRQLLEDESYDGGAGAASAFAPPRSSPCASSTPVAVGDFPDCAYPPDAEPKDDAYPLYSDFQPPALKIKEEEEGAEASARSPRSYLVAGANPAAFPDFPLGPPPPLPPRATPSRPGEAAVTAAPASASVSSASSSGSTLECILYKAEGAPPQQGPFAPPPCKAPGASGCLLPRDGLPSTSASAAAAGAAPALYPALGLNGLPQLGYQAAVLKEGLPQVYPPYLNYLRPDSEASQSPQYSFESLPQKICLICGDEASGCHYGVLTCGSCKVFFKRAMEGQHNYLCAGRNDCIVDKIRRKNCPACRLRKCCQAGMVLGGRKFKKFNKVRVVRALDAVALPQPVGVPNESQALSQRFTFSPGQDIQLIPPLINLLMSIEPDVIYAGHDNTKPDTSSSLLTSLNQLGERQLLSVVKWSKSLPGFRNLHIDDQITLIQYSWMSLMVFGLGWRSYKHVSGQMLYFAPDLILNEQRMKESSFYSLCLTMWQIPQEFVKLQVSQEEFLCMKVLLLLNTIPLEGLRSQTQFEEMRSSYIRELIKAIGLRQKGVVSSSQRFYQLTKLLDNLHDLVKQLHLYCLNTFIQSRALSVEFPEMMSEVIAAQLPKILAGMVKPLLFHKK
Assay: Cotransfection assay, PR agonist, CV-1 cells
Assay type: cell-based
Conditions: CV-1 cells; Table 1; read-out: PR Agonist CV-1 Cells Potency
Text: as §1, §2, §3

Row | SMILES | EC50 [µM]
11 | CC1(C)OC(=O)Nc2ccc3c(c21)COc1c(F)cc(C#N)cc1-3 [Compound 26, 9-cyano-7-fluoro-4,4-dimethyl-5H-chromeno[3,4-f]-1,3-benzo[d]oxazin-2-one] | 1
12 | CC1(C)OC(=O)Nc2ccc3c(c21)COc1c(F)cccc1-3 [Compound 14, 7-Fluoro-4,4-dimethyl-5H-chromeno[3,4-f]-1,3-benzo[d]oxazin-2-one] | 2.5
13 | CC1(C)OC(=O)Nc2ccc3c(c21)COc1c(F)cc(C=NO)cc1-3 [Compound 25, 7-fluoro-9-hydroxyiminomethyl-4,4-dimethyl-5H-chromeno[3,4-f]-1,3-benzo[d]oxazin-2-one] | 0.623
14 | CC1(C)OC(=O)Nc2ccc3c(c21)COc1c(F)cc(Br)cc1-3 [Compound 20, 9-Bromo-7-fluoro-4,4-dimethyl-5H-chromeno[3,4-f]-1,3-benzo[d]oxazin-2-one] | 0.5
15 | CC1(C)OC(=O)Nc2ccc3c(c21)COc1c(F)cc(C=O)cc1-3 [Compound 24, 7-fluoro-9-formyl-4,4-dimethyl-5H-chromeno[3,4-f]-1,3-benzo[d]oxazin-2-one] | > 10

Same assay, conditions: CV-1 cells; percent maximal response relative to reference agonist

Row | SMILES | PR Agonist CV-1 Cells Efficacy
16 | CC1(C)OC(=O)Nc2ccc3c(c21)COc1c(F)cc(C#N)cc1-3 [Compound 26, 9-cyano-7-fluoro-4,4-dimethyl-5H-chromeno[3,4-f]-1,3-benzo[d]oxazin-2-one] | 60%
17 | CC1(C)OC(=O)Nc2ccc3c(c21)COc1c(F)cccc1-3 [Compound 14, 7-Fluoro-4,4-dimethyl-5H-chromeno[3,4-f]-1,3-benzo[d]oxazin-2-one] | 30%
18 | CC1(C)OC(=O)Nc2ccc3c(c21)COc1c(F)cc(C=NO)cc1-3 [Compound 25, 7-fluoro-9-hydroxyiminomethyl-4,4-dimethyl-5H-chromeno[3,4-f]-1,3-benzo[d]oxazin-2-one] | 46%
19 | CC1(C)OC(=O)Nc2ccc3c(c21)COc1c(F)cc(Br)cc1-3 [Compound 20, 9-Bromo-7-fluoro-4,4-dimethyl-5H-chromeno[3,4-f]-1,3-benzo[d]oxazin-2-one] | 30%
20 | CC1(C)OC(=O)Nc2ccc3c(c21)COc1c(F)cc(C=O)cc1-3 [Compound 24, 7-fluoro-9-formyl-4,4-dimethyl-5H-chromeno[3,4-f]-1,3-benzo[d]oxazin-2-one] | na (na = not active (i.e. efficacy of <20 and potency of >10,000))

Same assay, conditions: Table 2; read-out: PR Potency Agon

Row | SMILES | EC50 [µM]
21 | CC1(C)OC(=O)Nc2ccc3c(c21)COc1c(F)cc(C=O)cc1-3 [Compound 24, 7-fluoro-9-formyl-4,4-dimethyl-5H-chromeno[3,4-f]-1,3-benzo[d]oxazin-2-one] | > 10

Molecular target: T2, human PR
Assay: Cotransfection assay, PR antagonist, CV-1 cells
Assay type: cell-based
Conditions: Table 1, read-out: PR Antagonist CV-1 Cells Potency
Text: as §1, §2, §3

Row | SMILES | IC50 [µM]
22 | CC1(C)OC(=O)Nc2ccc3c(c21)COc1c(F)cc(C#N)cc1-3 [Compound 26, 9-cyano-7-fluoro-4,4-dimethyl-5H-chromeno[3,4-f]-1,3-benzo[d]oxazin-2-one] | 0.016
23 | CC1(C)OC(=O)Nc2ccc3c(c21)COc1c(F)cccc1-3 [Compound 14, 7-Fluoro-4,4-dimethyl-5H-chromeno[3,4-f]-1,3-benzo[d]oxazin-2-one] | 0.025
24 | CC1(C)OC(=O)Nc2ccc3c(c21)COc1c(F)cc(C=NO)cc1-3 [Compound 25, 7-fluoro-9-hydroxyiminomethyl-4,4-dimethyl-5H-chromeno[3,4-f]-1,3-benzo[d]oxazin-2-one] | 0.023
25 | CC1(C)OC(=O)Nc2ccc3c(c21)COc1c(F)cc(Br)cc1-3 [Compound 20, 9-Bromo-7-fluoro-4,4-dimethyl-5H-chromeno[3,4-f]-1,3-benzo[d]oxazin-2-one] | 0.02
26 | CC1(C)OC(=O)Nc2ccc3c(c21)COc1c(F)cc(C=O)cc1-3 [Compound 24, 7-fluoro-9-formyl-4,4-dimethyl-5H-chromeno[3,4-f]-1,3-benzo[d]oxazin-2-one] | 0.098

Same assay, conditions: percent maximal response relative to reference antagonist

Row | SMILES | PR Antagonist CV-1 Cells Efficacy [%]
27 | CC1(C)OC(=O)Nc2ccc3c(c21)COc1c(F)cc(C#N)cc1-3 [Compound 26, 9-cyano-7-fluoro-4,4-dimethyl-5H-chromeno[3,4-f]-1,3-benzo[d]oxazin-2-one] | 68
28 | CC1(C)OC(=O)Nc2ccc3c(c21)COc1c(F)cccc1-3 [Compound 14, 7-Fluoro-4,4-dimethyl-5H-chromeno[3,4-f]-1,3-benzo[d]oxazin-2-one] | 95
29 | CC1(C)OC(=O)Nc2ccc3c(c21)COc1c(F)cc(C=NO)cc1-3 [Compound 25, 7-fluoro-9-hydroxyiminomethyl-4,4-dimethyl-5H-chromeno[3,4-f]-1,3-benzo[d]oxazin-2-one] | 87
30 | CC1(C)OC(=O)Nc2ccc3c(c21)COc1c(F)cc(Br)cc1-3 [Compound 20, 9-Bromo-7-fluoro-4,4-dimethyl-5H-chromeno[3,4-f]-1,3-benzo[d]oxazin-2-one] | 80
31 | CC1(C)OC(=O)Nc2ccc3c(c21)COc1c(F)cc(C=O)cc1-3 [Compound 24, 7-fluoro-9-formyl-4,4-dimethyl-5H-chromeno[3,4-f]-1,3-benzo[d]oxazin-2-one] | 84

Molecular target: T3, hMR (Homo sapiens, UniProt P08235)
T3 sequence (P08235 1-984): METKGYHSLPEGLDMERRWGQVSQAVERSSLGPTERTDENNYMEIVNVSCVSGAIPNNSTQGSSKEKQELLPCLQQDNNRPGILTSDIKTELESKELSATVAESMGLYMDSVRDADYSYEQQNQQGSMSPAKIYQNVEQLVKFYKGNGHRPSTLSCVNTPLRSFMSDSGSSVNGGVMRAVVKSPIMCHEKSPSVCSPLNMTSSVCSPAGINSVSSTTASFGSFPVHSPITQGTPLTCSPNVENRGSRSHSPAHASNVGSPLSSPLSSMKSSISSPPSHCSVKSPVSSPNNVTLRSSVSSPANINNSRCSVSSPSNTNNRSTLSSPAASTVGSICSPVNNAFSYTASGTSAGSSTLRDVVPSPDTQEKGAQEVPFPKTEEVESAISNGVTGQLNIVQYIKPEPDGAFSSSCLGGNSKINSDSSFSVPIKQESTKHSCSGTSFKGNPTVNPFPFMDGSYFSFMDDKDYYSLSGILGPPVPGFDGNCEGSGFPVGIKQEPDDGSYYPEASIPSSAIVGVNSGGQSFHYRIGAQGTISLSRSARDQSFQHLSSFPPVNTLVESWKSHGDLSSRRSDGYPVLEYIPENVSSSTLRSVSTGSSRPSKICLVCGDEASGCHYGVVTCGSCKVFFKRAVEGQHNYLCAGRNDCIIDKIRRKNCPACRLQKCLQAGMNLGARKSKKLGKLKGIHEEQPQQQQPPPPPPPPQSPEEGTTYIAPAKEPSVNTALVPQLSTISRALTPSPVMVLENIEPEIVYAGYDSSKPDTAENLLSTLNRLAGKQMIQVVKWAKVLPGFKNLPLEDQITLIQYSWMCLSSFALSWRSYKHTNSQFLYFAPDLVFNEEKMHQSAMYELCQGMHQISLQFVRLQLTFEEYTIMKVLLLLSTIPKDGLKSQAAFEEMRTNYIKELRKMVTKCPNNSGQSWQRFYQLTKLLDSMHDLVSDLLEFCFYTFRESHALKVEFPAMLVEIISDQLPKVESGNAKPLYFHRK
Assay: Cotransfection assay, MR antagonist
Assay type: cell-based
Conditions: read-out: MR Potency Antag
Text: as §1, §2, §3

Row | SMILES | IC50 [µM]
32 | CC1(C)OC(=O)Nc2ccc3c(c21)COc1c(F)cc(C#N)cc1-3 [Compound 26, 9-cyano-7-fluoro-4,4-dimethyl-5H-chromeno[3,4-f]-1,3-benzo[d]oxazin-2-one] | > 10
33 | CC1(C)OC(=O)Nc2ccc3c(c21)COc1c(F)cccc1-3 [Compound 14, 7-Fluoro-4,4-dimethyl-5H-chromeno[3,4-f]-1,3-benzo[d]oxazin-2-one] | > 10
34 | CC1(C)OC(=O)Nc2ccc3c(c21)COc1c(F)cc(C=NO)cc1-3 [Compound 25, 7-fluoro-9-hydroxyiminomethyl-4,4-dimethyl-5H-chromeno[3,4-f]-1,3-benzo[d]oxazin-2-one] | > 10
35 | CC1(C)OC(=O)Nc2ccc3c(c21)COc1c(F)cc(Br)cc1-3 [Compound 20, 9-Bromo-7-fluoro-4,4-dimethyl-5H-chromeno[3,4-f]-1,3-benzo[d]oxazin-2-one] | > 10
36 | CC1(C)OC(=O)Nc2ccc3c(c21)COc1c(F)cc(C=O)cc1-3 [Compound 24, 7-fluoro-9-formyl-4,4-dimethyl-5H-chromeno[3,4-f]-1,3-benzo[d]oxazin-2-one] | > 10
